According to patent US10100077B2, “6-aryl-9-glycosylpurines and use thereof” (UNIVERZITA PALACKEHO V OLOMOUCI, priority 2014, dated 2018):

Tests used:
[1] = tested on: Normal human dermal fibroblasts (NHDF); experiment: In vitro UVB photoprotection test (neutral red); format: cell-based; settings: UVB 400 mJ/cm^2, 0.9; 1.8; 3.9 a 7.8 μmol/l, 60 minutes pre-incubation
Source text: Normal human dermal fibroblasts (NHDF) were used as an in vitro model. Cells were isolated from tissue specimens obtained from healthy patients undergoing plastic surgery at the Department of Plastic and Aesthetic Surgery (University Hospital Olomouc). The use of skin tissue was in accordance with the Ethics Committee of the University Hospital and Faculty of Medicine and Dentistry, Palacký University, Olomouc and all patients signed written informed consent. Fibroblasts were used between the 2nd and 4th passage. For all experiments the fibroblasts were seeded onto 96-well plates at a density of 0.8×10^5 cells/ml (0.2 ml per well) of cultivation medium (DMEM supplemented with foetal calf serum (10%, v/v), penicillin […] and streptomycin (100 U/ml)).
Test compounds included 6-(3-methoxybenzylamino)-9-β-D-arabinofuranosylpurine. […] Intensity of UVA or UVB radiation was evaluated before each irradiation by UVA- or UVB-meter. […] After 24 hours (37° C., 5% CO2) cell damage was evaluated by neutral red (NR) incorporation into viable cells. […] After 5 minutes of intensive shaking absorbance was measured at 540 nm. […] Photoprotective effect was evaluated by comparison of experimental data (absorbance) of test compounds with a positive control and a negative control (according to the following equation: […]

[2] = Calcein AM cytotoxicity assay, K562; format: cell-based, human; settings: human, K562 erythroleukemia cells
In short: (§1)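 K562, MCF-7 and NIH3T3 cells (10^4/well) in DMEM with 10% FBS were preincubated for 24 hrs, then given six 4-fold dilutions, usually from 166.7 μM, in duplicate for 72 hrs at 37° C. Viability was read by Calcein AM fluorescence after 1 hour, with GI50 from survival relative to control.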

[3] = Calcein AM cytotoxicity assay, NIH3T3; format: cell-based, mouse; settings: mouse, NIH3T3 fibroblasts
In short: as §1

[4] = tested on: skin fibroblasts BJ and keratinocytes HaCaT; experiment: SRB in vitro toxicity test; format: cell-based; settings: Homo sapiens, 72 hour treatment, maximal concentration 50 microM
In short: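 BJ fibroblasts and HaCaT keratinocytes were exposed for 72 h to sixfold-diluted compound (maximum 50 μM), with DMSO as vehicle. Cells were TCA-fixed and stained with SRB, and absorbance was read at 564 nm. IC50 was calculated from dose-response curves.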

COc1cccc(CNc2ncnc3c2ncn3[C@@H]2O[C@H](CO)[C@@H](O)[C@@H]2O)c1 [6-(3-methoxybenzylamino)-9-β-D-arabinofuranosylpurine]
viability after UVB vs DMSO control (photoprotection) [1]: higher viability
GI50 at 72 h [2]: > 100 µM
GI50 at 72 h [3]: > 100 µM
IC50 [4]: > 50 µM
